Test system: not given
Assay: not given

Row | melting point [°C] | SMILES
1 | 173 to 174 | COC(=O)c1c(-c2ccccc2)c(C(=O)c2ccccc2)n2ccc(C)cc12 [Compound 4a, Methyl 3-Benzoyl-7-Methyl-2-Phenylindolizine-1-Carboxylate]
2 | 167 to 168 | COC(=O)c1c(-c2ccccc2)c(C(=O)c2ccc(F)cc2)n2ccc(C)cc12 [Compound 4b, Methyl 3-(4-Fluorobenzoyl)-7-Methyl-2-Phenylindolizine-1-Carboxylate]
3 | 154 to 155 | COC(=O)c1c(-c2ccccc2)c(C(=O)c2ccc(Cl)cc2)n2ccc(C)cc12 [Compound 4c, Methyl 3-(4-Chlorobenzoyl)-7-Methyl-2-Phenylindolizine-1-Carboxylate]
4 | 137 to 138 | COC(=O)c1c(-c2ccccc2)c(C(=O)c2ccc(Br)cc2)n2ccc(C)cc12 [Compound 4d, Methyl 3-(4-Bromobenzoyl)-7-Methyl-2-Phenylindolizine-1-Carboxylate]
5 | 235 to 236 | COC(=O)c1c(-c2ccccc2)c(C(=O)c2ccc(C#N)cc2)n2ccc(C#N)cc12 [Compound 4e, Methyl 7-Cyano-3-(4-Cyanobenzoyl)-2-Phenylindolizine-1-Carboxylate]
6 | 208 to 209 | COC(=O)c1c(-c2ccccc2)c(C(=O)c2ccc(Br)cc2)n2ccc(C#N)cc12 [Compound 4f, Methyl 3-(4-Bromobenzoyl)-7-Cyano-2-Phenylindolizine-1-Carboxylate]
7 | 166 to 167 | COC(=O)c1c(-c2ccccc2)c(C(=O)c2ccc(OC)cc2)n2ccc(C#N)cc12 [Compound 4g, Methyl 7-Cyano-3-(4-Methoxybenzoyl)-2-Phenylindolizine-1-Carboxylate]

Biological target: T1, human recombinant COX-2 enzyme (Homo sapiens, UniProt P35354)
T1 sequence (P35354 18-604): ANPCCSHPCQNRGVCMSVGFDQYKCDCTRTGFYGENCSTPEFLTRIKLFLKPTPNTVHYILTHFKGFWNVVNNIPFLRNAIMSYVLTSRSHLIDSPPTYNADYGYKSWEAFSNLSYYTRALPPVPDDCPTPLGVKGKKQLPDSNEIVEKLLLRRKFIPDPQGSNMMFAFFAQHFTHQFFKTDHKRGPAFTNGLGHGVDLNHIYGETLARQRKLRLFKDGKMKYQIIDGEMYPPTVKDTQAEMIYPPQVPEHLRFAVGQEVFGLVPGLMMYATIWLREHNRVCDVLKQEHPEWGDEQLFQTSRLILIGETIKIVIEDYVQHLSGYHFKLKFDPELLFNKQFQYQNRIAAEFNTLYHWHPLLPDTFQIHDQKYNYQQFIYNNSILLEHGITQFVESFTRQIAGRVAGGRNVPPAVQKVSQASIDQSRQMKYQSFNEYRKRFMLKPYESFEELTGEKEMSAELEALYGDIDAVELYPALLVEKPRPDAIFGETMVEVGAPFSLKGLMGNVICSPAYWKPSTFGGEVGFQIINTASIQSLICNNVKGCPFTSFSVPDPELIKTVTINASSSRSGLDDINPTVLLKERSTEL
Assay: In vitro COX-2 inhibition assay

Row | IC50 [µM] | SMILES
8 | 41.59 ± 0.03 | COC(=O)c1c(-c2ccccc2)c(C(=O)c2ccccc2)n2ccc(C)cc12 [Compound 4a, Methyl 3-Benzoyl-7-Methyl-2-Phenylindolizine-1-Carboxylate]
9 | 27.08 ± 0.03 | COC(=O)c1c(-c2ccccc2)c(C(=O)c2ccc(F)cc2)n2ccc(C)cc12 [Compound 4b, Methyl 3-(4-Fluorobenzoyl)-7-Methyl-2-Phenylindolizine-1-Carboxylate]
10 | 38.11 ± 0.03 | COC(=O)c1c(-c2ccccc2)c(C(=O)c2ccc(Cl)cc2)n2ccc(C)cc12 [Compound 4c, Methyl 3-(4-Chlorobenzoyl)-7-Methyl-2-Phenylindolizine-1-Carboxylate]
11 | 37.66 ± 0.03 | COC(=O)c1c(-c2ccccc2)c(C(=O)c2ccc(Br)cc2)n2ccc(C)cc12 [Compound 4d, Methyl 3-(4-Bromobenzoyl)-7-Methyl-2-Phenylindolizine-1-Carboxylate]
12 | 6.71 ± 0.03 | COC(=O)c1c(-c2ccccc2)c(C(=O)c2ccc(C#N)cc2)n2ccc(C#N)cc12 [Compound 4e, Methyl 7-Cyano-3-(4-Cyanobenzoyl)-2-Phenylindolizine-1-Carboxylate]
13 | 13.55 ± 0.03 | COC(=O)c1c(-c2ccccc2)c(C(=O)c2ccc(Br)cc2)n2ccc(C#N)cc12 [Compound 4f, Methyl 3-(4-Bromobenzoyl)-7-Cyano-2-Phenylindolizine-1-Carboxylate]
14 | 9.62 ± 0.03 | COC(=O)c1c(-c2ccccc2)c(C(=O)c2ccc(OC)cc2)n2ccc(C#N)cc12 [Compound 4g, Methyl 7-Cyano-3-(4-Methoxybenzoyl)-2-Phenylindolizine-1-Carboxylate]

— article PMC6920857, “Novel Series of Methyl 3-(Substituted Benzoyl)-7-Substituted-2-Phenylindolizine-1-Carboxylates as Promising Anti-Inflammatory Agents: Molecular Modeling Studies” (Biomolecules, 2019)
